Key:
[1] = 100 kPa, Liquid; for speed of sound: Frequency=2 MHz
[2] = xn = mol fraction of the nth substance listed; conditions: 100 kPa, Liquid; for speed of sound: Frequency=2 MHz

CCN1CCCC1=O [1-ethyl-2-pyrrolidinone]
[1]
Conditions	mass density [kg/m3]	speed of sound [m/s]	viscosity [mPa·s]
293.15 K	997.71	1512.1	2.117
303.15 K	989.14	1474.2	1.771
313.15 K	980.56	1436	1.518
323.15 K	971.96	1398.5	1.299

CCN1CCCC1=O [1-ethyl-2-pyrrolidinone] + CCNCCO
[2], x1 = 1
Conditions	mass density [kg/m3]	speed of sound [m/s]	viscosity [mPa·s]
293.15 K	997.71	1512.1	2.117
303.15 K	989.14	1474.2	1.771
313.15 K	980.56	1436	1.518
323.15 K	971.96	1398.5	1.299

CCNCCO [2-(ethylamino)ethanol]
[1]
Conditions	mass density [kg/m3]	speed of sound [m/s]	viscosity [mPa·s]
293.15 K	917.79	1442.4	15.28
303.15 K	909.82	1408.3	9.59
313.15 K	901.79	1374.5	6.406
323.15 K	893.68	1340.9	4.527

CNCCO [2-(methylamino)ethanol]
[1]
Conditions	mass density [kg/m3]	speed of sound [m/s]	viscosity [mPa·s]
293.15 K	941.79	1486.5	13.42
303.15 K	934.02	1454.6	8.58
313.15 K	926.18	1422.7	5.869
323.15 K	918.25	1390.9	4.096

CNCCO [2-(methylamino)ethanol] + CCN1CCCC1=O
[2], x2 = 0
Conditions	mass density [kg/m3]	speed of sound [m/s]	viscosity [mPa·s]
293.15 K	941.79	1486.5	13.42
303.15 K	934.02	1454.6	8.58
313.15 K	926.18	1422.7	5.869
323.15 K	918.25	1390.9	4.096
